The target in the experiment is T1, human mGluR5d (Homo sapiens, UniProt P41594).
T1 construct: expressed in transfected cells; host or cells: GHEK (HEK cells expressing a glutamate transporter) for the IP3 assay
Put plainly: Functional assessment of mGluR5 antagonism in cell lines expressing mGluR5d (FLIPR [Ca2+]i mobilization assay / IP3 turnover assay; assay behind the values not specified). The class given is cell-based. To be noted: assays described herein (FLIPR or IP3), cells expressing human mGluR5d. The text has this:
The pharmacological properties of the compounds of the invention can be analyzed using standard assays for functional activity. Examples of glutamate receptor assays are well known in the art as described in for example Aramori et al., Neuron 8:757 (1992), Tanabe et al., Neuron 8:169 (1992), Miller et al., J. Neuroscience 15: 6103 (1995), Balazs, et al., J Neurochemistry 69:151 (1997). The methodology described in these publications is incorporated herein by reference. Conveniently, the compounds of the invention can be studied by means of an assay that measures the mobilization of intracellular calcium, [Ca^2+]i in cells expressing mGluR5.
Intracellular calcium mobilization was measured by detecting changes in fluorescence of cells loaded with the fluorescent indicator fluo-3. Fluorescent signals were measured using the FLIPR system (Molecular Devices). A two addition experiment was used that could detect compounds that either activate or antagonize the receptor.
For FLIPR analysis, cells expressing human mGluR5d were seeded on collagen coated clear bottom 96-well plates with black sides and analysis of [Ca^2+]i mobilization was done 24 hours after seeding.
FLIPR experiments were done using a laser setting of 0.800 W and a 0.4 second CCD camera shutter speed. Each FLIPR experiment was initiated with 160 μL of buffer present in each well of the cell plate. After each addition of the compound, the fluorescence signal was sampled 50 times at 1 second intervals followed by 3 samples at 5 second intervals. Responses were measured as the peak height of the response within the sample period.
EC50 and IC50 determinations were made from data obtained from 8-point concentration response curves (CRC) performed in duplicate. Agonist CRC were generated by scaling all responses to the maximal response observed for the plate. Antagonist block of the agonist challenge was normalized to the average response of the agonist challenge in 14 control wells on the same plate.
We have validated a secondary functional assay for mGluR5d based on Inositol Phosphate (IP3) turnover. IP3 accumulation is measured as an index of receptor mediated phospholipase C turnover. GHEK cells stably expressing the human mGluR5d receptors were incubated with [3H] myo-inositol overnight, washed three times in HEPES buffered saline and pre-incubated for 10 min. with 10 mM LiCl. Compounds (agonists) were added and incubated for 30 min. at 37° C. Antagonist activity was determined by pre-incubating test compounds for 15 min., then incubating in the presence of glutamate (80 μM) or DHPG (30 μM) for 30 min. Reactions were terminated by the addition of perchloric acid (5%). Samples were collected and neutralized, and inositol phosphates were separated using Gravity-Fed Ion-Exchange Columns.
Functional assessment of mGluR5 Antagonism in Cell Lines Expressing mGluR5D
The properties of the compounds of the invention can be analyzed using standard assays for pharmacological activity. Examples of glutamate receptor assays are well known in the art as described in for example Aramori et al., Neuron 8:757 (1992), Tanabe et al., Neuron 8:169 (1992), Miller et al., J. Neuroscience 15: 6103 (1995), Balazs, et al., J. Neurochemistry 69:151 (1997). The methodology described in these publications is incorporated herein by reference. Conveniently, the compounds of the invention can be studied by means of an assay (FLIPR) that measures the mobilization of intracellular calcium, [Ca^2+]i in cells expressing mGluR5 or another assay (IP3) that measures inositol phosphate turnover.
Cells expressing human mGluR5d as described in WO97/05252 are seeded at a density of 100,000 cells per well on collagen coated clear bottom 96-well plates with black sides and experiments are done 24 h following seeding. All assays are done in a buffer containing 127 mM NaCl, 5 mM KCl, 2 mM MgCl2, 0.7 mM NaH2PO4, 2 mM CaCl2, 0.422 mg/ml NaHCO3, 2.4 mg/ml HEPES, 1.8 mg/ml glucose and 1 mg/ml BSA Fraction IV (pH 7.4). […]

From US20070037817A1, “Acetylenic piperazines as metabotropic glutamate receptor antagonists” (AstraZeneca AB, priority 2005, published 2007) come the findings set out here.

The term pIC50 denotes the IC50 on a negative log10 scale, so that one unit is a factor of ten. A lower pIC50 goes with a large IC50.

pIC50: −log10 of the molar value.

T1 sequence (P41594 21-942 isoform P41594-3 limits assumed): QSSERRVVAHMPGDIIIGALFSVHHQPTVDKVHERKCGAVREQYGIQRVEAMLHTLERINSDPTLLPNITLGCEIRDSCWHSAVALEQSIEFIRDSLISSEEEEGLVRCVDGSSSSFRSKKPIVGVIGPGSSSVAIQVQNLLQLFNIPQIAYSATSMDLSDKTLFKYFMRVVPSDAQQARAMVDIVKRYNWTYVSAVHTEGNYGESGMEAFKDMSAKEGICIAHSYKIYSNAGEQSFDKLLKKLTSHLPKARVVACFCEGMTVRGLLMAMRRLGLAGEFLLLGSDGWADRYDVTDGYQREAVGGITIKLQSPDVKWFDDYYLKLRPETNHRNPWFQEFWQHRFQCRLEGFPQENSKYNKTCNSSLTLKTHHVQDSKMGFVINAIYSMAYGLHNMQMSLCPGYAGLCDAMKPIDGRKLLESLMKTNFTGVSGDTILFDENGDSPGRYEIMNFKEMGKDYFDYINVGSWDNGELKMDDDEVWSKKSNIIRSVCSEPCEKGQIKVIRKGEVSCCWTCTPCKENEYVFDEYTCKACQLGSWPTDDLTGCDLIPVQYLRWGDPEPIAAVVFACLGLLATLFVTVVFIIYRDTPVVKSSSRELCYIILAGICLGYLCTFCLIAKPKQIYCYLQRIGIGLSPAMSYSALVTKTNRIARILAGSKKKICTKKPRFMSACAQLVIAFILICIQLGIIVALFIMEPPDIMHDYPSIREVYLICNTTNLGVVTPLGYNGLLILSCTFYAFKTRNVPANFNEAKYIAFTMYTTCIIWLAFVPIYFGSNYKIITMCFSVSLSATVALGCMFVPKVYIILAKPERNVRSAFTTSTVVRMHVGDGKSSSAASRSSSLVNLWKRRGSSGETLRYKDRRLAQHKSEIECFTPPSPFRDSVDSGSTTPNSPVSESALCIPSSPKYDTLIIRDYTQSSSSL

For `N#Cc1ccc(N2CCN3[C@@H](CC[C@H]3C#Cc3cccc(Cl)c3)C2)nc1` [Example 13.3, 6-[(6S,8aS)-6-[(3-chlorophenyl)ethynyl]hexahydropyrrolo[1,2-a]pyrazin-2(1H)-yl]nicotinonitrile], the negative logarithm of the IC50 (pIC50) is 6.31. For the compound `N#Cc1cccc(C#C[C@H]2CCC[C@H]3CN(c4ncccc4C#N)CCN32)c1` (racemic) [Example 18.3, (±)-2-{(6R,9aS)-6-[(3-cyanophenyl)ethynyl]octahydro-2H-pyrido[1,2-a]pyrazin-2-yl}nicotinonitrile], the pIC50 was 7.70. The figure for `N#Cc1cc(F)cnc1N1CCN2[C@@H](CCC[C@@H]2C#Cc2ccccn2)C1` (racemic) [Example 18.7, (±)-5-fluoro-2-[(6R,9aS)-6-(pyridin-2-ylethynyl)octahydro-2H-pyrido [1,2-a]pyrazin-2-yl]nicotinonitrile] is 7.08. Regarding `N#Cc1nccnc1N1CCN2[C@@H](CC[C@@H]2C#Cc2nccs2)C1` (racemic) [Example 14.26, (±)-3-[(6R,8aS)-6-(1,3-thiazol-2-yl-ethynyl)hexahydropyrrolo[1,2-a]pyrazin-2(1H)-yl]pyrazine-2-carbonitrile], the pIC50 was 6.36. On to `COC(=O)c1cccnc1N1CCN2[C@@H](CC[C@@H]2C#Cc2cccc(Cl)c2)C1` (racemic) [Example 13.12, (±)-methyl 2-[(6R,8aS)-6-[(3-chloro-phenyl)ethynyl]hexahydropyrrolo[1,2-a]pyrazin-2(1H)-yl]nicotinate], for which the pIC50 is 7.64. `CCOC(=O)N1CCN2[C@@H](CC[C@H]2C#Cc2cccc(Cl)c2)C1` [Example 12.3, ethyl (6S,8aS)-6-[(3-chloro-phenyl)ethynyl]hexahydropyrrolo[1,2-a]pyrazine-2(1H)-carboxylate] gave a pIC50 of 6.73.
